One assay concerns the target Plasminogen (Homo sapiens, UniProt P00747). As to the kind of experiment: Inhibitory potency against plasmin.
In the next assay the target is Prothrombin (Homo sapiens, UniProt P00734). As to the kind of experiment: Inhibitory potency against thrombin.
Another assay concerns the target Serine protease 1 (Homo sapiens, UniProt P07477). The assay is described as follows: Inhibitory potency against trypsin.
For the next assay, the target named is Tryptase beta-1 (Homo sapiens, UniProt Q15661). As to the kind of experiment: Inhibitory potency against tryptase.
Chain of Tryptase beta-1 (Q15661 whole entry): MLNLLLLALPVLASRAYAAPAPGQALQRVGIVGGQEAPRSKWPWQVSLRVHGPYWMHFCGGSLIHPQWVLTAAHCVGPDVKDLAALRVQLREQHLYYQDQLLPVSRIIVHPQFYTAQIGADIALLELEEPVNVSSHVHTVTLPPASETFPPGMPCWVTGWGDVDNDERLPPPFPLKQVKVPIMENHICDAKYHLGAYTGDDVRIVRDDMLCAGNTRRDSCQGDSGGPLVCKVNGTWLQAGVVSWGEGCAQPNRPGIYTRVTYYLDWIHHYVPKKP

Chain of Serine protease 1 (P07477 whole entry): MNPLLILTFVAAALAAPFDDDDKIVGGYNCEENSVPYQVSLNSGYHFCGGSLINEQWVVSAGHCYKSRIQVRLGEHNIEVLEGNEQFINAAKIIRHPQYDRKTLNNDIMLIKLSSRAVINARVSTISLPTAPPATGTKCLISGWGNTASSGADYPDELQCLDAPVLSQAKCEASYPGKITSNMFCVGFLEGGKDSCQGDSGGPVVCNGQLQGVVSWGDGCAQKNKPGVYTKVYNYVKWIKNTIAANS
Chain of Plasminogen (P00747 97-580 limits assumed): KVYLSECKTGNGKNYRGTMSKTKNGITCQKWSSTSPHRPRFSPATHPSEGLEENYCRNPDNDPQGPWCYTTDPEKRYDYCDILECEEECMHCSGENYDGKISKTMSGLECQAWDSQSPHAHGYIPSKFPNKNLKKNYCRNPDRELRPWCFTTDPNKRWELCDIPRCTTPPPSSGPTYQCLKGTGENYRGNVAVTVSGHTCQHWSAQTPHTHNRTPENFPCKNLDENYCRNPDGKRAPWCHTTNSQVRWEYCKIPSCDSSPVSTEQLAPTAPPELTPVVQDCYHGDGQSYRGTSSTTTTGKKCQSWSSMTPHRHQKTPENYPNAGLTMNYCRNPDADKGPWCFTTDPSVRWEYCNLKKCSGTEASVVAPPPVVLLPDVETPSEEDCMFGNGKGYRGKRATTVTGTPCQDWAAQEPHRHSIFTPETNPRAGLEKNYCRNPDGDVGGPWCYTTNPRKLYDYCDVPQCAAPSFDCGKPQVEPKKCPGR
Chain of Plasminogen (P00747 581-810 limits assumed): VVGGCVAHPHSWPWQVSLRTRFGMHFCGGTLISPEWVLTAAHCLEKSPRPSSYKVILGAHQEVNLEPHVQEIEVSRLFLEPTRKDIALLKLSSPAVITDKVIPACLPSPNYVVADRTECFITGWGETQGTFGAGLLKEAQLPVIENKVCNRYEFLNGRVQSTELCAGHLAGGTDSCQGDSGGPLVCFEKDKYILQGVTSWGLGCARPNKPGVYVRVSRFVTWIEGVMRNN

The Ki is a dissociation constant, usually derived from enzyme kinetics or from competition with a known ligand. A lower Ki goes with a stronger hold on the target. Regarding `NCc1ccc(CNC(=O)CCCC(=O)NCc2ccc(CNC(=O)CCCC(=O)NCc3ccc(CN)cc3)cc2)cc1`, the Ki at Plasminogen was greater than 1000 µM; on Prothrombin it was greater than 1000 µM; at Serine protease 1, 274 µM; on Tryptase beta-1, 0.009 µM.
As to `N=C(N)Nc1ccc(CNC(=O)CCC(=O)NCc2ccc(CNC(=O)CCC(=O)NCc3ccc(NC(=N)N)cc3)cc2)cc1`, the Ki on Plasminogen was greater than 1000 µM; on Prothrombin, greater than 1000 µM; at Serine protease 1, 146 µM; at Tryptase beta-1, 0.04 µM.
On to `C[C@@H](NC(=O)OCc1ccc(COC(=O)N[C@H](C)C(=O)NCc2ccc(CN)cc2)cc1)C(=O)NCc1ccc(CN)cc1`, for which the inhibition constant Ki on Plasminogen is greater than 1000 µM; on Prothrombin it was greater than 1000 µM; on Serine protease 1, 38 µM; at Tryptase beta-1, 0.031 µM.
`NCc1ccc(CNC(=O)CNC(=O)OCc2ccc(COC(=O)NCC(=O)NCc3ccc(CN)cc3)cc2)cc1`: the Ki was greater than 1000 µM at Plasminogen, greater than 1000 µM at Prothrombin and 0.0006 µM on Tryptase beta-1.
Regarding `N=C(N)Nc1ccc(CNC(=O)CCNC(=O)OCc2ccc(COC(=O)NCCC(=O)NCc3ccc(NC(=N)N)cc3)cc2)cc1`, the Ki is greater than 1000 µM on Plasminogen, greater than 1000 µM on Prothrombin, 72 µM at Serine protease 1 and 0.09 µM on Tryptase beta-1.
With `O=C(NCc1ccccc1)N1CCN(C(=O)O[C@H]2CCC[C@@H](OC(=O)N3CCN(C(=O)NCc4ccccc4)CC3)CCC2)CC1`, the Ki on Plasminogen is greater than 1000 µM; on Prothrombin, 14 µM; at Serine protease 1 it was 44 µM; at Tryptase beta-1, 101 µM.
In the same order, the values of `N=C(N)Nc1ccc(CNC(=O)CC(=O)NCc2ccc(CNC(=O)CC(=O)NCc3ccc(NC(=N)N)cc3)cc2)cc1` are greater than 1000 µM, greater than 1000 µM, 73 µM and 0.68 µM.
With `N=C(N)Nc1ccc(CNC(=O)N2CCN(C(=O)O[C@H]3CCC[C@@H](OC(=O)N4CCN(C(=O)NCc5ccc(NC(=N)N)cc5)CC4)CCC3)CC2)cc1`, the values for the inhibition constant (Ki) at Plasminogen, at Prothrombin and at Serine protease 1 were 494 µM, 435 µM and 39 µM, respectively.
On to `NC(N)=Nc1ccc(CNC(=O)NCC(=O)O[C@H]2CCC[C@@H](OC(=O)CNC(=O)NCc3ccc(N=C(N)N)cc3)CCC2)cc1`, for which the Ki on Plasminogen was greater than 1000 µM; on Prothrombin, greater than 1000 µM; at Serine protease 1, 78 µM; on Tryptase beta-1, 0.002 µM.
With `NCc1ccc(CNC(=O)CCC(=O)NCc2ccc(CNC(=O)CCC(=O)NCc3ccc(CN)cc3)cc2)cc1`, the Ki at Plasminogen was 769 µM; at Prothrombin, greater than 1000 µM; on Serine protease 1, 237 µM; on Tryptase beta-1, 0.003 µM.
On to `NCc1ccc(CNC(=O)CC(=O)NCc2ccc(CNC(=O)CC(=O)NCc3ccc(CN)cc3)cc2)cc1`, for which the Ki was greater than 1000 µM at Plasminogen, greater than 1000 µM at Prothrombin, 317 µM on Serine protease 1 and 0.15 µM on Tryptase beta-1.
On to `NC(N)=Nc1ccc(CNC(=O)CNC(=O)OCc2ccc(COC(=O)NCC(=O)NCc3ccc(N=C(N)N)cc3)cc2)cc1`, for which the Ki at Plasminogen was greater than 1000 µM; at Prothrombin, greater than 1000 µM; on Serine protease 1 it was 56 µM; at Tryptase beta-1, 0.01 µM.
Consider `CN(Cc1ccc(CN)cc1)C(=O)CCC(=O)NCc1ccc(CNC(=O)CCC(=O)N(C)Cc2ccc(CN)cc2)cc1`, for which the Ki is greater than 1000 µM at Plasminogen, greater than 1000 µM on Prothrombin, greater than 1000 µM on Serine protease 1 and 2 µM on Tryptase beta-1.
Take `N=C(N)Nc1ccc(CNC(=O)CCCC(=O)NCc2ccc(CNC(=O)CCCC(=O)NCc3ccc(NC(=N)N)cc3)cc2)cc1`: the Ki was greater than 1000 µM on Plasminogen, 492 µM at Prothrombin, 70 µM at Serine protease 1 and 0.1 µM at Tryptase beta-1.
Take `N=C(N)Nc1ccc(CNC(=O)N2CCN(C(=O)O[C@H]3CCC[C@@H](OC(=O)N4CCN(C(=O)NCc5ccccc5)CC4)CCC3)CC2)cc1`: the Ki at Plasminogen is greater than 1000 µM; at Prothrombin, greater than 1000 µM; at Serine protease 1, 182 µM; on Tryptase beta-1, 15 µM.
Regarding `CN(Cc1ccc(CN(C)C(=O)CCC(=O)NCc2ccc(CN)cc2)cc1)C(=O)CCC(=O)NCc1ccc(CN)cc1`, the inhibition constant Ki at Plasminogen was 214 µM; on Prothrombin, greater than 1000 µM; at Serine protease 1, 162 µM; on Tryptase beta-1 it was 0.005 µM.
In the same order, the values of `C[C@H](NC(=O)OCc1ccc(COC(=O)N[C@@H](C)C(=O)NCc2ccc(CN)cc2)cc1)C(=O)NCc1ccc(CN)cc1` are 83 µM, greater than 1000 µM, 273 µM and 0.366 µM.
In the case of `CN(CC(=O)NCc1ccc(CN)cc1)C(=O)OCc1ccc(COC(=O)N(C)CC(=O)NCc2ccc(CN)cc2)cc1`, the Ki is greater than 230 µM on Plasminogen, greater than 1000 µM on Prothrombin, 50 µM at Serine protease 1 and 0.005 µM on Tryptase beta-1.
